From patent publication US20120302609A1, “Pyrazolines for the Modulation of PKM2” (Dynamix Pharmaceuticals LTD., priority 2011, published 2012)

Target: T1, PKM2, human recombinant (Homo sapiens, UniProt P14618)
T1 construct: purchased BPS 50295
Test: PKM2 enzymatic activity assay (Kinase-Glo Plus luminescence);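 as to Max activity Group: percent increase over no-compound signal after subtracting the no-PKM2 background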
Assay type: biochemical
Settings: for AC50: 0.1 nM PKM2, 0.1 mM ADP, 0.5 mM PEP, 1 hour, room temperature, read-out: AC50 group; for Emax: 1 h, read-out: Max activity Group; for Max activity: 30 μM
Protocol: PKM2 performs the following enzymatic reaction, where the PKM2 substrates, PEP (phosphoenolpyruvate) and ADP, are converted to pyruvate and ATP as follows:
All of the enzymatic reactions were conducted in duplicates at room temperature for 1 hour in a 50 μL mixture containing: • PKM2 assay buffer (50 mM Imidazole, pH 7.2; 7 mM MgCl2; 50 mM KCl; 0.01% Tween; • and 0.05% BSA), 0.1 mM ADP, 0.5 mM PEP, 0.1 nM PKM2 enzyme (PKM2, human recombinant (BPS catalog number 50295)) and the indicated test compound. Fructose 1,6 biphosphat e, (FBP (Sigma)) was used as a positive control for activation at concentration of 0.5 mM. After enzymatic reactions, 50 μL of Kinase-Glo® Plus reagent (Promega kit) was added to each well and luminescence was measured using a BioTek Synergy™ 2 microplate reader.
PKM2 activity assays were performed in duplicates at each concentration. The luminescence data were analyzed using the computer software, GraphPad PRISM®. In the absence of the compound, the luminescence was defined as 0% activity. The percent activity in the presence of each compound was calculated according to the following equation:
% Activity=[(L−Lb)/(Lt−Lb)−1]×100%
where L=the luminescence in the presence of the test compound, Lb=the luminescence in the absence of PKM2, and Lt=the luminescence intensity in the absence of the test compound. The % activity values versus a series of compound concentrations were plotted using non-linear regression analysis of Sigmoidal dose-response curve generated with the equation Y=B+(T−B)/1+10^((LogEC50-X)×Hill Slope), where Y=percent activity, B=minimum percent activity, T=maximum percent activity, X=logarithm of compound and Hill Slope=slope factor or Hill coefficient. The AC50 values, shown in Table 2 were determined for the indicated test compounds as the concentration causing a half-maximal percent activity.

[1] = maximum percent activity, luminescence without compound = 0% activity

T1 sequence (P14618 whole entry): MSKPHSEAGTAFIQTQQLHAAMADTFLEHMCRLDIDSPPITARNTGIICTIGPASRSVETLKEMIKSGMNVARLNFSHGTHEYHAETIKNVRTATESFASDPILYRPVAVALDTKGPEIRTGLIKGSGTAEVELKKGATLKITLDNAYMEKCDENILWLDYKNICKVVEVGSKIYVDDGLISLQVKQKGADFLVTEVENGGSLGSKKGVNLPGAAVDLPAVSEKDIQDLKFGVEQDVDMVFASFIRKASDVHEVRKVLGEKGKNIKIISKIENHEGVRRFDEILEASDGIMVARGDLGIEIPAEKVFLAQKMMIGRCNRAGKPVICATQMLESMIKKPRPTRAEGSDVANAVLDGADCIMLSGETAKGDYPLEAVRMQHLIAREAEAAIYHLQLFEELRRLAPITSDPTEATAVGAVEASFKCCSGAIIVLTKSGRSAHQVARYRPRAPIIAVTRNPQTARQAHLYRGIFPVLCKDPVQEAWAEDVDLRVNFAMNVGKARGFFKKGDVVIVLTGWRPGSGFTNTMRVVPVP

Row | Structure (SMILES) | AC50 [nM] | Emax [1] [%] | Max activity Group [1] | Max activity
1 | COc1ccc(C2CC(c3ccc(NS(=O)(=O)c4ccc(OC)cc4)cc3)=NN2C(C)=O)cc1 (racemic) [Compound 19A, N-(4-(1-Acetyl-5-(4-methoxyphenyl)-4,5-dihydro-1H-pyrazol-3-yl)phenyl)-4-methoxy benzenesulfonamide] | ≤ 1000 | ≥ 200 | – | –
2 | CC(=O)N1N=C(c2ccc(NS(=O)(=O)c3ccc(F)cc3)cc2)CC1c1ccc(F)cc1 (racemic) [Compound 25A, N-(4-(1-Acetyl-5-(4-fluorophenyl)-4,5-dihydro-1H-pyrazol-3-yl)phenyl)-4-fluoro benzenesulfonamide] | ≤ 1000 | ≤ 130 | – | –
3 | CCS(=O)(=O)Nc1ccc(C2=NN(C(C)=O)C(c3ccc(OC)cc3)C2)cc1 (single isomer, unassigned) [Compound 2A, N-(4-(1-Acetyl-5-(4-methoxyphenyl)-4,5-dihydro-1H-pyrazol-3-yl)phenyl)ethane sulfonamide] | ≤ 1000 | – | – | –
4 | CCS(=O)(=O)Nc1ccc(C2=NN(C(C)=O)C(c3ccc(OC)cc3)C2)cc1 (single isomer, unassigned) [Compound 3A] | ≤ 1000 | 130 to 200 | – | –
5 | COc1ccc(C2CC(c3ccc(NS(=O)(=O)c4ccc(F)cc4)cc3)=NN2C(C)=O)cc1 (single isomer, unassigned) [Compound 12A] | 10000 to 100000 | ≤ 130 | – | –
6 | CC(=O)N1N=C(c2ccc(NS(=O)(=O)c3ccc(F)cc3)cc2)CC1c1ccc(F)cc1 (single isomer, unassigned) [Compound 35A] | ≤ 1000 | ≤ 130 | – | –
7 | CCS(=O)(=O)Nc1ccc(C2=NN(C(C)=O)C(c3ccc4c(c3)OCCO4)C2)cc1 (stereo not shown) [Compound 4A] | ≤ 1000 | 130 to 200 | – | –
8 | COc1ccc(C2CC(c3ccc(NS(=O)(=O)c4c(F)cccc4F)cc3)=NN2C(C)=O)cc1 (stereo not shown) [Compound 5A] | ≤ 1000 | ≥ 200 | – | –
9 | COc1ccc(C2CC(c3ccc(NS(=O)(=O)c4ccc5c(c4)OCCO5)cc3)=NN2C(C)=O)cc1 (stereo not shown) [Compound 7A, N-(4-(1-acetyl-5-(4-methoxyphenyl)-4,5-dihydro-1H-pyrazol-3-yl)phenyl)-2,3-dihydrobenzo[b][1,4]dioxine-6-sulfonamide] | 1000 to 10000 | 130 to 200 | – | –
10 | CC(=O)N1N=C(c2ccc(NS(=O)(=O)c3ccc(F)cc3)cc2)CC1c1ccc2c(c1)OCCO2 (stereo not shown) [Compound 8A, N-(4-(1-Acetyl-5-(2,3-dihydrobenzo[b][1,4]dioxin-6-yl)-4,5-dihydro-1H-pyrazol-3-yl)phenyl)-4-fluorobenzenesulfonamide] | 1000 to 10000 | 130 to 200 | – | –
11 | CC(=O)N1N=C(c2ccc3c(c2)CCN3S(C)(=O)=O)CC1c1ccc2c(c1)OCCO2 (stereo not shown) [Compound 9A, 1-(5-(2,3-dihydrobenzo[b][1,4]dioxin-6-yl)-3-(1-(methylsulfonyl)indolin-5-yl)-4,5-dihydro-1H-pyrazol-1-yl)ethanone] | 10000 to 100000 | ≤ 130 | – | –
12 | CCNS(=O)(=O)c1ccc(C2=NN(C(C)=O)C(c3ccc(OC)cc3)C2)cc1 (stereo not shown) [Compound 10A, 4-(1-acetyl-5-(4-methoxyphenyl)-4,5-dihydro-1H-pyrazol-3-yl)-N-ethylbenzenesulfonamide] | ≤ 1000 | 130 to 200 | – | –
13 | COc1ccc(C2CC(c3ccc(NS(=O)(=O)c4c(F)cccc4F)cc3)=NN2C(=O)c2ccco2)cc1 (stereo not shown) [Compound 11A, 2,6-Difluoro-N-(4-(1-(furan-2-carbonyl)-5-(4-methoxyphenyl)-4,5-dihydro-1H-pyrazol-3-yl)phenyl)benzenesulfonamide] | 1000 to 10000 | ≥ 200 | – | –
14 | COc1ccc(C2CC(c3ccc(NS(=O)(=O)c4c(F)cccc4F)cc3)=NN2C(=O)c2ccccn2)cc1 (stereo not shown) [Compound 14A, 2,6-Difluoro-N-(4-(5-(4-methoxyphenyl)-1-picolinoyl-4,5-dihydro-1H-pyrazol-3-yl)phenyl)benzenesulfonamide] | 1000 to 10000 | ≤ 130 | – | –
15 | COc1ccc(C2CC(c3ccc(NS(=O)(=O)c4c(F)cccc4F)cc3)=NN2C(=O)c2cccnc2)cc1 (stereo not shown) [Compound 15A, 2,6-difluoro-N-(4-(5-(4-methoxyphenyl)-1-nicotinoyl-4,5-dihydro-1H-pyrazol-3-yl)phenyl)benzenesulfonamide] | 1000 to 10000 | ≥ 200 | – | –
16 | COc1ccc(C2CC(c3ccc(NS(=O)(=O)c4ccccc4)cc3)=NN2C(C)=O)cc1 (stereo not shown) [Compound 16A] | 1000 to 10000 | 130 to 200 | – | –
17 | COc1ccc(C2CC(c3ccc(NS(=O)(=O)c4ccccc4)cc3)=NN2C(C)=O)cc1 (stereo not shown) [Compound 17A, N-(4-(1-Acetyl-5-(4-methoxyphenyl)-4,5-dihydro-1H-pyrazol-3-yl)phenyl)benzene sulfonamide] | 1000 to 10000 | – | C (C: ≦130%) | –
18 | COc1ccc(C2CC(c3ccc(NS(=O)(=O)c4ccccc4C(F)(F)F)cc3)=NN2C(C)=O)cc1 (stereo not shown) [Compound 20A] | ≤ 1000 | 130 to 200 | – | –
19 | CC(=O)N1N=C(c2ccc(NS(=O)(=O)c3ccc(F)cc3)cc2)CC1c1ccc2c(c1)CCO2 (stereo not shown) [Compound 22A, N-(4-(1-Acetyl-5-(2,3-dihydrobenzofuran-5-yl)-4,5-dihydro-1H-pyrazol-3-yl)phenyl)-4-fluorobenzenesulfonamide] | ≤ 1000 | 130 to 200 | – | –
20 | CC(=O)N1N=C(c2ccc(NS(=O)(=O)c3ccc(F)cc3)cc2)CC1c1ccc(F)c(F)c1 (stereo not shown) [Compound 27A, N-(4-(1-Acetyl-5-(3,4-difluorophenyl)-4,5-dihydro-1H-pyrazol-3-yl)phenyl)-4-fluoro benzenesulfonamide] | 1000 to 10000 | ≤ 130 | – | –
21 | COc1ccc(C2CC(c3ccc(NS(=O)(=O)c4cccc(Cl)c4)cc3)=NN2C(C)=O)cc1 (stereo not shown) [Compound 28A, N-(4-(1-Acetyl-5-(4-methoxyphenyl)-4,5-dihydro-1H-pyrazol-3-yl)phenyl)-3-chloro benzenesulfonamide] | 1000 to 10000 | ≤ 130 | – | –
22 | COc1ccc(C2CC(c3ccc(NS(=O)(=O)c4ccc(OC)c(F)c4)cc3)=NN2C(C)=O)cc1 (stereo not shown) [Compound 44A] | ≤ 1000 | 130 to 200 | – | –
23 | CC(=O)N1N=C(c2ccc(NS(C)(=O)=O)cc2)CC1c1ccc2c(c1)OCO2 (stereo not shown) [Compound 52A] | ≤ 1000 | ≤ 130 | – | –
24 | CCS(=O)(=O)Nc1ccc(C2=NN(C(=O)c3ccco3)C(c3ccc(OC)cc3)C2)cc1 (stereo not shown) [Compound 53A] | 1000 to 10000 | ≥ 200 | – | –
25 | COc1ccc(C2CC(c3ccc(NS(C)(=O)=O)cc3)=NN2C(C)=O)cc1OC (stereo not shown) [Compound 54A] | – | – | – | 6% (30 μM)
26 | CCS(=O)(=O)Nc1ccc(C2=NN(S(C)(=O)=O)C(c3ccc(OC)cc3)C2)cc1 (stereo not shown) [Compound 55A] | – | – | – | −5% (30 μM)
27 | COc1cc(C2CC(c3ccc(NS(C)(=O)=O)cc3)=NN2C(C)=O)cc(OC)c1OC (stereo not shown) [Compound 56A] | – | – | – | −6% (30 μM)
28 | CCS(=O)(=O)Nc1ccc(C2=NN(C(C)=O)C(c3ccccc3F)C2)cc1 (stereo not shown) [Compound 57A] | ≤ 1000 | ≤ 130 | – | –
29 | CCS(=O)(=O)Nc1ccc(C2=NN(C(C)=O)C(c3ccc(Cl)o3)C2)cc1 (stereo not shown) [Compound 59A] | – | – | – | 47% (30 μM)
30 | CCS(=O)(=O)Nc1ccc(C2=NN(C(C)=O)C(c3cccs3)C2)cc1 (stereo not shown) [Compound 67A] | 10000 to 100000 | 130 to 200 | – | –
